For experiment [1], the target named is human RORγt ligand binding domain (RORγt LBD) (Homo sapiens (Human), UniProt P51449). Description: RORγt ThermoFluor® assay (thermal shift binding). Conditions: read-out: ThermoFluor® Assay, Kd. The method in brief: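 Thermal shift with 0.065 mg/mL RORγt LBD and 60 μM 1,8-ANS in 100 mM Hepes pH 7.0, 10 mM NaCl, 2.5 mM GSH, 0.002% Tween-20.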
The next experiment concerns the target full-length human RORγt (Homo sapiens (Human), UniProt P51449). Briefly: RORγt (full-length human) reporter assay, conditions A or B, HEK293T cells. Type of experiment: cell-based. The settings on record: for IC50: RORγt (FL) Reporter Assay A or B, IC50, HEK293T cells; for inhibition at 6 µM: read-out: RORγt (FL) Reporter Assay A or B, % inhibition @ 6 μM. The method in brief: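 After 16–20 h, dual firefly/Renilla luciferase luminescence was read. Firefly signal was normalized to DMSO and saturating reference compound, then to Renilla, and fitted for IC50; % inhibition is versus DMSO.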
(In general: Reporter assays use an easily measured gene product as a stand-in for the process of interest.)

The mark [2] stands for this setting: HEK-293T, 2 μM compound concentration, read-out: RORγt (FL) Reporter Assay A or B, % inhibition.
Where [3] appears, read: HEK-293T, 6 μM compound concentration.
Where [4] appears, read: HEK-293T, read-out: RORγt (FL) Reporter Assay A or B, % inhibition.

Among the data in patent US10975037B2 (priority 2018, dated 2021) are Kd, inhibition and IC50 values, retold here.

Like-named read-outs stand apart in the source and are kept apart here. A value given as a limit tells only on which side of the number the result lay.

Chain of human RORγt ligand binding domain (RORγt LBD) (P51449 other isoform, or with tags, fused parts or gaps): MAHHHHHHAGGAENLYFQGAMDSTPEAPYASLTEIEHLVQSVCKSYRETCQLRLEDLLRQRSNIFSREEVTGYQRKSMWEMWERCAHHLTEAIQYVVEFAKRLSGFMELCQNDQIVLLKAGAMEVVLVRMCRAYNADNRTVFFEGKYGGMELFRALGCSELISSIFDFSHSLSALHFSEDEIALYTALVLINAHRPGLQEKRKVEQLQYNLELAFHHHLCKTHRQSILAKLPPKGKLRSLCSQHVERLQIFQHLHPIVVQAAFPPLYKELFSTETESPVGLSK
Chain of full-length human RORγt (P51449 other isoform, or with tags, fused parts or gaps): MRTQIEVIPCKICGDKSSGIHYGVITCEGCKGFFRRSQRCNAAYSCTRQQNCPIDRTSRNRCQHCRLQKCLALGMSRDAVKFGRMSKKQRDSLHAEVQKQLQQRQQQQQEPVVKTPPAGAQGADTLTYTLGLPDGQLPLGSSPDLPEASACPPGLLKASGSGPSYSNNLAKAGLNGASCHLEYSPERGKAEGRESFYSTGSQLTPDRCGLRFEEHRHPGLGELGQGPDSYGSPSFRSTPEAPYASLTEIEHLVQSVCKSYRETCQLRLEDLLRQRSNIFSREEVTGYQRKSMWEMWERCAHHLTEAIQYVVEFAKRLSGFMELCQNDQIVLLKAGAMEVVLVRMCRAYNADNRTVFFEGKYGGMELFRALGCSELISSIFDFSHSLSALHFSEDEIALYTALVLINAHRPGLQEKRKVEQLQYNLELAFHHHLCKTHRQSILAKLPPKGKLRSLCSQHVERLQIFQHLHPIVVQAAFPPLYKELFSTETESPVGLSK

The term Kd denotes a measure of binding affinity in units of concentration. The inhibition is the relative decrease from the control value, in per cent. By IC50 is commonly meant the midpoint of a concentration-inhibition curve. Regarding `COCCn1nc(C(=O)NC[C@H]2CC[C@H](S(C)(=O)=O)CC2)c(Cl)c1-c1ccc(CC(C)(C)C(F)(F)F)cc1OC` [Example 185, 4-Chloro-5-(2-methoxy-4-(3,3,3-trifluoro-2,2-dimethylpropyl)phenyl)-1-(2-methoxyethyl)-N-(((1r,4r)-4-(methylsulfonyl)cyclohexyl)methyl)-1H-pyrazole-3-carboxamide], in experiment [1], the Kd amounted to 2.4 nM. Further, the inhibition at 2 µM at full-length human RORγt (setting [2]) was determined as 92%. In addition, 30 nM corresponded to half-maximal inhibition at full-length human RORγt (IC50).

As for `COCCn1nc(C(=O)NC[C@]2(O)CC[C@@H](S(C)(=O)=O)CC2)c(Cl)c1-c1ccc(CC(C)(C)C(F)(F)F)cc1OC` [Example 186, 4-Chloro-N-(((1s,4s)-1-hydroxy-4-(methylsulfonyl)cyclohexyl)methyl)-5-(2-methoxy-4-(3,3,3-trifluoro-2,2-dimethylpropyl)phenyl)-1-(2-methoxyethyl)-1H-pyrazole-3-carboxamide], the Kd in experiment [1] stood at 7.7 nM. The inhibition at 6 µM on full-length human RORγt (setting [3]) was determined as 96%. In addition, half-maximal inhibition on full-length human RORγt (IC50) required 34 nM.

For the compound `CCn1nc(C(=O)NC[C@]2(O)CC[C@@H](S(C)(=O)=O)CC2)c(Cl)c1-c1ccc(CCC(F)(F)F)cc1OC(F)(F)F` [Example 188, 4-Chloro-1-ethyl-N-(((1s,4s)-1-hydroxy-4-(methylsulfonyl)cyclohexyl)methyl)-5-(2-(trifluoromethoxy)-4-(3,3,3-trifluoropropyl)phenyl)-1H-pyrazole-3-carboxamide], the Kd in experiment [1] was found to be 11 nM. Besides, the inhibition at 2 µM on full-length human RORγt (setting [2]) worked out at 34%. Further, the IC50 at full-length human RORγt was above 2000 nM.

On to `CCn1nc(C(=O)NC[C@H]2CC[C@H](S(C)(=O)=O)CC2)c(Cl)c1-c1ccc(CCC(F)(F)F)cc1OC(F)(F)F` [Example 189, 4-Chloro-1-ethyl-N-(((1r,4r)-4-(methylsulfonyl)cyclohexyl)methyl)-5-(2-(trifluoromethoxy)-4-(3,3,3-trifluoropropyl)phenyl)-1H-pyrazole-3-carboxamide], for which the Kd in experiment [1] was found to be 4.8 nM. Also, the inhibition at 2 µM at full-length human RORγt (setting [4]) worked out at 47%. Further, the IC50 against full-length human RORγt is above 2000 nM.

In the case of `CCn1nc(C(=O)NC[C@H]2CC[C@H](S(C)(=O)=O)CC2)c(Cl)c1-c1ccc(N[C@H](C)C(F)(F)F)cc1OC(F)(F)F` [Example 190, 4-Chloro-1-ethyl-N-(((1r,4R)-4-(methylsulfonyl)cyclohexyl)methyl)-5-(2-(trifluoromethoxy)-4-(((R)-1,1,1-trifluoropropan-2-yl)amino)phenyl)-1H-pyrazole-3-carboxamide], the Kd in experiment [1] came to 1.2 nM. For the same compound, the inhibition at 2 µM at full-length human RORγt (setting [2]) was 104%. At full-length human RORγt, this compound displayed a half-maximal inhibitory concentration (IC50) of 21 nM.

For the compound `CCn1nc(C(=O)NC[C@H]2CC[C@H](S(C)(=O)=O)CC2)c(Cl)c1-c1ccc(N[C@H](C)C(F)(F)F)cc1` [Example 194, 4-Chloro-1-ethyl-N-(((1r,4R)-4-(methylsulfonyl)cyclohexyl)methyl)-5-(4-(((R)-1,1,1-trifluoropropan-2-yl)amino)phenyl)-1H-pyrazole-3-carboxamide], in experiment [1], the Kd amounted to 29 nM. In addition, the inhibition at 2 µM at full-length human RORγt (setting [2]) amounted to 93%. At full-length human RORγt, this compound came in with an IC50 of 120 nM.

For the compound `CCn1nc(C(=O)NC[C@]2(O)CC[C@@H](S(C)(=O)=O)CC2)c(Cl)c1-c1ccc(N[C@H](C)C(F)(F)F)cc1` [Example 195, 4-Chloro-1-ethyl-N-(((1s,4S)-1-hydroxy-4-(methylsulfonyl)cyclohexyl)methyl)-5-(4-(((R)-1,1,1-trifluoropropan-2-yl)amino)phenyl)-1H-pyrazole-3-carboxamide], the Kd in experiment [1] came to 52 nM. For the same compound, the inhibition at 6 µM on full-length human RORγt (HEK-293T) is 96%. Also, on full-length human RORγt, 300 nM corresponded to half-maximal inhibition (IC50).

For the compound `CCn1nc(C(=O)NC[C@H]2CC[C@H](S(C)(=O)=O)CC2)c(Cl)c1-c1c(F)cc(N[C@H](C)C(F)(F)F)cc1F` [Example 196, 4-Chloro-5-(2,6-difluoro-4-(((R)-1,1,1-trifluoropropan-2-yl)amino)phenyl)-1-ethyl-N-(((1r,4R)-4-(methylsulfonyl)cyclohexyl)methyl)-1H-pyrazole-3-carboxamide], the Kd in experiment [1] stood at 5.4 nM. Moreover, at full-length human RORγt (setting [2]), the inhibition at 2 µM was 101%. The IC50 on full-length human RORγt turned out to be 20 nM.

`CCn1nc(C(=O)NC[C@H]2CC[C@H](S(C)(=O)=O)CC2)c(Cl)c1-c1c(F)cc(CC(C)C(F)(F)F)cc1F` (stereo partly drawn) [Example 197, 4-Chloro-5-(2,6-difluoro-4-(3,3,3-trifluoro-2-methylpropyl)phenyl)-1-ethyl-N-(((1r,4r)-4-(methylsulfonyl)cyclohexyl)methyl)-1H-pyrazole-3-carboxamide]: the Kd in experiment [1] worked out at 2 nM. Besides, the inhibition at 0.67 µM on full-length human RORγt (HEK-293T, 0.67 μM compound concentration (footnote ****), read-out: RORγt (FL) Reporter Assay A or B, % inhibition) was found to be 70%. This compound also came in with an IC50 at full-length human RORγt of 21 nM.

For `COc1cc(CC(C)C(F)(F)F)ccc1-c1c(Cl)c(C(=O)NC[C@H]2CC[C@H](S(C)(=O)=O)CC2)nn1CCO` (stereo partly drawn) [Example 200, 4-Chloro-1-(2-hydroxyethyl)-5-(2-methoxy-4-(3,3,3-trifluoro-2-methylpropyl)phenyl)-N-(((1r,4r)-4-(methylsulfonyl)cyclohexyl)methyl)-1H-pyrazole-3-carboxamide], in experiment [1], the dissociation constant Kd turned out to be 13 nM. In addition, on full-length human RORγt (setting [2]), the inhibition at 2 µM is 96%. This compound registered an IC50 at full-length human RORγt of 78 nM.

As for `COc1cc(N[C@H](C)C(F)(F)F)ccc1-c1c(Cl)c(C(=O)NC[C@H]2CC[C@H](S(C)(=O)=O)CC2)nn1CC(C)(C)O` [Example 202, 4-Chloro-1-(2-hydroxy-2-methylpropyl)-5-(2-methoxy-4-(((R)-1,1,1-trifluoropropan-2-yl)amino)phenyl)-N-(((r,4R)-4-(methylsulfonyl)cyclohexyl)methyl)-1H-pyrazole-3-carboxamide], in experiment [1], the Kd was found to be 180 nM. Also, the inhibition at 6 µM at full-length human RORγt (setting [3]) stood at 93%. This compound also showed an IC50 against full-length human RORγt of 850 nM.

Take `CCn1nc(C(=O)NC[C@H]2CC[C@H](S(C)(=O)=O)CC2)c(Cl)c1-c1ccc(N[C@H](C)C(F)(F)F)cc1C(C)C` [Example 204, 4-Chloro-1-ethyl-5-(2-isopropyl-4-(((R)-1,1,1-trifluoropropan-2-yl)amino)phenyl)-N-(((1r,4R)-4-(methylsulfonyl)cyclohexyl)methyl)-1H-pyrazole-3-carboxamide]: the Kd in experiment [1] was found to be 13 nM. Moreover, the inhibition at 2 µM on full-length human RORγt (setting [2]) was 102%. Moreover, the IC50 at full-length human RORγt came to 53 nM.

Take `CCOc1cc(N[C@H](C)C(F)(F)F)ccc1-c1c(Cl)c(C(=O)NC[C@H]2CC[C@H](S(C)(=O)=O)CC2)nn1CC` [Example 205, 4-Chloro-5-(2-ethoxy-4-(((R)-1,1,1-trifluoropropan-2-yl)amino)phenyl)-1-ethyl-N-(((1r,4R)-4-(methylsulfonyl)cyclohexyl)methyl)-1H-pyrazole-3-carboxamide]: the Kd in experiment [1] was found to be 5.4 nM. For the same compound, the inhibition at 2 µM on full-length human RORγt (setting [4]) was 104%. This compound also came in with an IC50 against full-length human RORγt of 29 nM.

Consider `CCc1cc(N[C@H](C)C(F)(F)F)ccc1-c1c(Cl)c(C(=O)NC[C@H]2CC[C@H](S(C)(=O)=O)CC2)nn1CC` [Example 206, 4-Chloro-1-ethyl-5-(2-ethyl-4-(((R)-1,1,1-trifluoropropan-2-yl)amino)phenyl)-N-(((1r,4R)-4-(methylsulfonyl)cyclohexyl)methyl)-1H-pyrazole-3-carboxamide], for which, in experiment [1], the Kd turned out to be 7 nM. Also, the inhibition at 2 µM on full-length human RORγt (setting [2]) is 100%. For the same compound, the IC50 against full-length human RORγt came out at 31 nM.

With `CCn1nc(C(=O)NC[C@H]2CC[C@H](S(C)(=O)=O)CC2)c(Cl)c1-c1ccc(N[C@H](C)C(F)(F)F)cc1OC(C)C` [Example 207, 4-Chloro-1-ethyl-5-(2-isopropoxy-4-(((R)-1,1-trifluoropropan-2-yl)amino)phenyl)-N-(((1r,4R)-4-(methylsulfonyl)cyclohexyl)methyl)-1H-pyrazole-3-carboxamide], the Kd in experiment [1] stood at 10 nM. Moreover, at full-length human RORγt (setting [3]), the inhibition at 6 µM turned out to be 101%. On full-length human RORγt, this compound returned an IC50 of 40 nM.

As for `CCn1nc(C(=O)NC[C@H]2CC[C@H](S(C)(=O)=O)CC2)c(Cl)c1-c1ccc(N2CC(C(F)(F)F)C2)cc1OC` [Example 208, 4-Chloro-1-ethyl-5-(2-methoxy-4-(3-(trifluoromethyl)azetidin-1-yl)phenyl)-N-(((1r,4r)-4-(methylsulfonyl)cyclohexyl)methyl)-1H-pyrazole-3-carboxamide], the Kd in experiment [1] came to 40 nM. The inhibition at 2 µM at full-length human RORγt (setting [2]) turned out to be 87%. This compound also gave an IC50 against full-length human RORγt of 150 nM.

`CCn1nc(C(=O)NC[C@H]2CC[C@H](S(C)(=O)=O)CC2)c(Cl)c1-c1ccc(OC(C)C(F)(F)F)cc1OC` (stereo partly drawn) [Example 212, 4-Chloro-1-ethyl-5-(2-methoxy-4-((1,1,1-trifluoropropan-2-yl)oxy)phenyl)-N-(((1r,4r)-4-(methylsulfonyl)cyclohexyl)methyl)-1H-pyrazole-3-carboxamide]: the Kd in experiment [1] is 7.4 nM. The inhibition at 2 µM on full-length human RORγt (setting [2]) was 81%. In addition, at full-length human RORγt, the midpoint of inhibition, the IC50, lay at 33 nM.

On to `CCn1nc(C(=O)NC[C@H]2CC[C@H](S(C)(=O)=O)CC2)c(Cl)c1-c1ccc(OCCC(F)(F)F)cc1OC` [Example 213, 4-Chloro-1-ethyl-5-(2-methoxy-4-(3,3,3-trifluoropropoxy)phenyl)-N-(((1r,4r)-4-(methylsulfonyl)cyclohexyl)methyl)-1H-pyrazole-3-carboxamide], for which the Kd in experiment [1] came to 34 nM. In addition, the inhibition at 2 µM at full-length human RORγt (setting [2]) stood at 77%. Besides, half-maximal inhibition on full-length human RORγt (IC50) was put at 77 nM.
